{"source": "patent US9586914B2", "about": "“Modulators of C3a receptors” (THE UNIVERSITY OF QUEENSLAND, priority 2011, dated 2017)", "key": {"[1]": {"tested_on": "IL1B, IL8, CCL3, EGR1, FOSB and TNF gene expression in HMDMs", "test": "Regulation of inflammatory genes in HMDM (qRT-PCR)", "assay_type": "cell-based, human", "conditions": "HMDMs, 300 nM, 30 minutes; qRT-PCR, fold change from control", "from_the_text": "Human monocyte-derived macrophages (HMDMS) were isolated from buffy coat of anonymous donors provided by the Australian Red Cross Blood Service at Kelvin Grove, Queensland, Australia. White blood cells were separated from other blood components into different layers using Ficoll-Paque Plus Density Centrifugation (GE Healthcare Bio-Science, Uppsala, Sweden) according to manufacturer's instruction. The isolated white blood cells were repeatedly washed with ice-cold water to remove contaminating erythrocytes. CD14^+ monocytes were positively selected from white blood cells using CD14^+ Macs Magnetic Beads (Miltenyi biotech, Auburn, Calif., USA) after successive magnetic sorting and washings. CD14^+ monocytes (1.5×10^6 cells/mL) were seeded in 10 mL of IMDM supplemented with 10% fetal calf serum (FBS), 10 U/mL streptomycin, 10 U/mL penicillin and 2 mmol L-glutamine (Invitrogen). To generate HMDMS, […] of recombinant human macrophage colony stimulating factor (M-CSF) (Peprotech Inc., rocky Hill, N.J., USA) was added for differentiation. HMDMS were maintained at 37° C. in a humidified incubator with 5% CO2 for a week to fully differentiate. At day 7, the adhered HMDMS were harvested by gentle scraping in saline solution.\nHMDMs (2×10^6) in 2 mL of IMDM medium were transferred into each well on a 6-well plate. The cells were left to incubate for 6 h to allow adhesion before being serum starved in serum free IMDM to reduce background noise of the C3a treatment. In the time response experiment, cells were treated with 10 nM of C3a or agonist (compound 8 or 64) for 0.5, 1, 2 or 6 h. In concentration response experiments, cells were treated with 1, 10, 100 or 300 nM for 1 h. To prepare the samples for the microarray experiments, cells were treated with agonist at 100-300 nM for 30 min or 1 h in the absence or presence of the antagonist (e.g. SB-290157 or antagonists). […] Cells were washed with saline solution at the end of each treatment before the RNA extraction step.\nTotal RNA was extracted from cells using RNeasy Mini Plus kit (Qiagen, USA) according to the manufacturer's instructions. The concentration of the RNA was determined by measuring absorbance at λ=260/280 […] on a nanodrop spectrophotometer (Thermo Scientific), according to the manufacturer's instructions.\nTotal RNA (2-5 μg) was reverse transcribed with Superscript III (Invitrogen, USA) using random oligo dT primer. Reagents were incubated (50 min, 50° C.; then 10 min, 70° C.) in thermal cyclers (Bio-Rad) to complete the reaction, cDNA samples were stored at −20° C. until further use. All RNA work was performed on ice (4° C.) to prevent degradation of the RNA samples.\ncDNA (0.5 μg) samples were prepared with 5 μL SYBR® Green PCR master mix (Applied Biosystems™, CA, USA), 2 μL relevant primers (2 μM) and 1 μL dH2O before being analysed using an ABI 7900HT Fast Real-Time PCR System (Applied Biosystems™, CA, USA) according to the manufacturer's specifications. Fluorescence data was collected during the extension phase (60° C.). The concentration response data for each sample was then normalised against the same data for control housekeeping gene, (18S) to quantify and generate gene expression data. All samples were done in at least duplicate. Primers were designed using the Primer-BLAST software (National Center for Biotechnology Information, USA). Primers contained, amplicons that cross exon-exon boundaries to prevent amplification of genomic DNA. […]"}, "[2]": {"tested_on": "human kidney tubule cells", "test": "ELISA of cytokines from human kidney tubule cells", "assay_type": "cell-based", "conditions": "for IL-8: 0 μM gives 1.8 ± 0.3; for IL-6: 0 μM gives 2.4 ± 0.4; for TNF: 0 μM gives 10.1 ± 2; for GMCSF (pg/ml/ml): 0 μM gives 71.3 ± 23; for Fibronectin: 0 μM gives 75.2 ± 29", "method": "Human renal cortical tissue (10 g) was minced finely, washed several times and agitated for 20 minutes at 37° C. in a Krebs-Henseleit buffer (KHB) containing collagenase type II (1 mg/mL), Cold KHB was added and the solution passed through a 297 μm sieve (50 Mesh, Sigma). After washing three times the tubular fragments were re-suspended in 45% percoll-KHB and centrifuged at 20000×g. A high density band, previously shown to be tubule fragments, was removed and cultured in a serum free, hormonally defined DMEM/F12 media (containing 10 ng/mL epidermal growth factor, 5 μg/mL insulin, […] transferrin, 50 nM hydrocortisone, […] prostaglandin E1, 50 nM selenium and 5 pM triiodothyronine). All experiments were performed on confluent passage 2 HTEC made quiescent by two washes followed by incubation for 24 h in serum and growth factor free DMEM/F12 media. These cells were incubated with C3aR agonists and antagonists.\nSupernatant and lysates from cell culture treatment samples were collected and stored separately at −20° C. until further use. Human IL1B, IL8, IL6 and TNF levels were determined using the respective OptEIA™ ELISA kit (BD Biosciences, San Diego, USA) according to the manufacturer's instructions. The readings were recorded on a FLUOstar Optima (BMG LabTechnologies, Offenburg, Germany)."}}, "note": "“Also recorded” adds a separate entry of the source.", "data": [{"smiles": "CC(C)C[C@H](NC(=O)c1c[nH]c2ccccc12)c1nc(C(=O)N[C@@H](CCCNC(=N)N)C(=O)O)co1", "note": "[Compound 8, 3-Indole Carboxylic Acid-Leucine-Oxazole-Arginine-OH]", "values": [{"measurement": "Induction of gene expression of IL1B, IL8, CCL3, EGR1, FOSB and TNF", "setting": "[1]", "value": "significantly induce gene expression; also recorded: induced expression of inflammatory genes"}, {"measurement": "IL-8", "setting": "[2]; compound 8 at 1 μM", "value": "1.9 ± 0.4", "unit": "ng/mL"}, {"measurement": "IL-6", "setting": "[2]; compound 8 at 1 μM", "value": "2.5 ± 0.1", "unit": "ng/mL"}, {"measurement": "TNF", "setting": "[2]; compound 8 at 1 μM", "value": "9.9 ± 1", "unit": "pg/mL"}, {"measurement": "GMCSF (pg/ml/ml)", "setting": "[2]; compound 8 at 1 μM", "value": "74.6 ± 7.1", "unit": "pg/ml/ml"}, {"measurement": "Fibronectin", "setting": "[2]; compound 8 at 1 μM", "value": "89.6 ± 11", "unit": "ng/mL"}, {"measurement": "IL-8", "setting": "[2]; compound 8 at 2.5 μM", "value": "5.7 ± 2", "unit": "ng/mL"}, {"measurement": "IL-6", "setting": "[2]; compound 8 at 2.5 μM", "value": "8.2 ± 0.6", "unit": "ng/mL"}, {"measurement": "TNF", "setting": "[2]; compound 8 at 2.5 μM", "value": "12.3 ± 1", "unit": "pg/mL"}, {"measurement": "GMCSF (pg/ml/ml)", "setting": "[2]; compound 8 at 2.5 μM", "value": "142.8 ± 10.9", "unit": "pg/ml/ml"}, {"measurement": "Fibronectin", "setting": "[2]; compound 8 at 2.5 μM", "value": "89.0 ± 5", "unit": "ng/mL"}, {"measurement": "IL-8", "setting": "[2]; compound 8 at 5 μM", "value": "31.5 ± 5", "unit": "ng/mL"}, {"measurement": "IL-6", "setting": "[2]; compound 8 at 5 μM", "value": "30.9 ± 2.5", "unit": "ng/mL"}, {"measurement": "TNF", "setting": "[2]; compound 8 at 5 μM", "value": "76.6 ± 13", "unit": "pg/mL"}, {"measurement": "GMCSF (pg/ml/ml)", "setting": "[2]; compound 8 at 5 μM", "value": "738.0 ± 127.6", "unit": "pg/ml/ml"}, {"measurement": "Fibronectin", "setting": "[2]; compound 8 at 5 μM", "value": "149.5 ± 21", "unit": "ng/mL"}, {"measurement": "IL-8", "setting": "[2]; compound 8 at 10 μM", "value": "30.4 ± 8", "unit": "ng/mL"}, {"measurement": "IL-6", "setting": "[2]; compound 8 at 10 μM", "value": "33.5 ± 5", "unit": "ng/mL"}, {"measurement": "TNF", "setting": "[2]; compound 8 at 10 μM", "value": "117.8 ± 53", "unit": "pg/mL"}, {"measurement": "GMCSF (pg/ml/ml)", "setting": "[2]; compound 8 at 10 μM", "value": "1056 ± 147.8", "unit": "pg/ml/ml"}, {"measurement": "Fibronectin", "setting": "[2]; compound 8 at 10 μM", "value": "172.9 ± 20", "unit": "ng/mL"}, {"measurement": "IL-8", "setting": "[2]; compound 8 at 20 μM", "value": "76.4 ± 18", "unit": "ng/mL"}, {"measurement": "IL-6", "setting": "[2]; compound 8 at 20 μM", "value": "55.8 ± 12", "unit": "ng/mL"}, {"measurement": "TNF", "setting": "[2]; compound 8 at 20 μM", "value": "277.9 ± 28", "unit": "pg/mL"}, {"measurement": "GMCSF (pg/ml/ml)", "setting": "[2]; compound 8 at 20 μM", "value": "2853 ± 399", "unit": "pg/ml/ml"}, {"measurement": "Fibronectin", "setting": "[2]; compound 8 at 20 μM", "value": "200.9 ± 28", "unit": "ng/mL"}, {"measurement": "Induction at 40 μM, Fibronectin", "setting": "[2]; compound 8 at 40 μM vs 0 μM", "value": "2-fold"}, {"measurement": "Induction at 40 μM, GMCSF", "setting": "[2]; compound 8 at 40 μM vs 0 μM", "value": "80-fold"}, {"measurement": "Induction at 40 μM, IL-6", "setting": "[2]; compound 8 at 40 μM vs 0 μM", "value": "40-fold"}, {"measurement": "Induction at 40 μM, IL-8", "setting": "[2]; compound 8 at 40 μM vs 0 μM", "value": "75-fold"}, {"measurement": "Induction at 40 μM, TNF", "setting": "[2]; compound 8 at 40 μM vs 0 μM", "value": "75-fold"}, {"measurement": "IL-8", "setting": "[2]; compound 8 at 40 μM", "value": "135.0 ± 9", "unit": "ng/mL"}, {"measurement": "IL-6", "setting": "[2]; compound 8 at 40 μM", "value": "96.9 ± 29", "unit": "ng/mL"}, {"measurement": "TNF", "setting": "[2]; compound 8 at 40 μM", "value": "757.8 ± 13", "unit": "pg/mL"}, {"measurement": "GMCSF (pg/ml/ml)", "setting": "[2]; compound 8 at 40 μM", "value": "5790 ± 726", "unit": "pg/ml/ml"}, {"measurement": "Fibronectin", "setting": "[2]; compound 8 at 40 μM", "value": "148.0 ± 32", "unit": "ng/mL"}, {"measurement": "Secretion of inflammatory cytokines", "setting": "[2]; primary human kidney cells", "value": "induces secretion of inflammatory cytokines"}]}]}
